In patent US20260028343A1, “Substituted Imidazopyrazine Compounds as Ligand Directed Degraders of IRAK3” (Celgene Corporation, priority 2022, published 2026):

Columns and labels:
IRAK3 [1] = molecular target: T1, IRAK3 (Homo sapiens, UniProt Q9Y616); assay: IRAK3 Biochemical Binding Assay (LanthaScreen Eu Kinase Binding); conditions: TR-FRET tracer displacement, 1 hour at room temperature
T1 construct: IRAK Endogenous HTRF Degradation Assay; endogenous in cells
T1 sequence (Q9Y616 1-596): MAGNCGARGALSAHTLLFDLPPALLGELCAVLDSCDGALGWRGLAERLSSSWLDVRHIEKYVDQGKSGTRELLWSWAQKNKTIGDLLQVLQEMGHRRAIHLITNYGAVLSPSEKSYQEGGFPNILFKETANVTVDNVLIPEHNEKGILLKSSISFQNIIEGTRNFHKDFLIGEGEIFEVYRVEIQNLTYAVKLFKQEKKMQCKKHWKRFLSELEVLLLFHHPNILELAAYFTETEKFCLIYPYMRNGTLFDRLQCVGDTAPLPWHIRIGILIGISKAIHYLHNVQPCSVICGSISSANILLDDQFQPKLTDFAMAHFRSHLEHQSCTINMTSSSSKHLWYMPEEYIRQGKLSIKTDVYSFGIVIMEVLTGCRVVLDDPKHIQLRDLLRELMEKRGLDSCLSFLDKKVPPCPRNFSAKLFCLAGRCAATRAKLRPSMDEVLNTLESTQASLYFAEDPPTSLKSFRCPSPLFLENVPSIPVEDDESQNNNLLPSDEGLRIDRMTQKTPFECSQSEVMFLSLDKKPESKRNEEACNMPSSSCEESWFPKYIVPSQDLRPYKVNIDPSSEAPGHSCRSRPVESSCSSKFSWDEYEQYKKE
Procedure: The LanthaScreen® Eu Kinase Binding assay was performed as described by the vendor (ThermoFisher Scientific Waltham, MA). Briefly, 100× solutions of compound were prepared in DMSO via serial dilution of the 10 mM stock solution in a 384-well reagent plate using 3-fold intervals to achieve final concentrations. 1 μL of the compound dilution series were added to the corresponding wells of a 384-well reagent plate containing 32.3 μL of 1× buffer (50 mM HEPES pH 7.4, […], 1 mM EGTA, 0.01% Brij-35). 5 μL of the buffer diluted compounds were transferred to the corresponding wells of a 384-well assay plate. 5 μL of 3× tracer was transferred to each well of the assay plate for a final tracer concentration of 10 nM. Finally, 5 μL of the 3× Eu-Anti-GST and IRAK3 mix was transferred to each well for a final concentration of 2 nM and 10 nM respectively. Reactions were allowed to incubate for 1 hour at room temperature. TR-FRET signal of the interaction (λex340/λem 665/λem 615) was read at room temperature with a delay time of 100 μs and an integration time of 200 μs using an Envision plate reader. Background corrected emission signal ratios at each compound concentration were used to calculate percentage of inhibition (% Inhibition). Plots of % Inhibition versus inhibitor concentrations were fit according to a dose-response equation (Eq. 1) to generate IC50 and Hill slope values using Dotmatics software (Dotmatics, Bishops Stortford, Hertfordshire, England).
(§1) Using these assays, IC50, Dmax, EC50, and DC50 values of the following compounds were determined. Dmax is defined as the maximum percent degradation achieved and DC50 is the concentration at which 50% degradation is achieved.

IRAK3 [2] = molecular target: T1, IRAK3; assay: IRAK Endogenous HTRF Degradation Assay; format: cell-based; conditions: endogenous IRAK3, overnight incubation; for Dmax: % Dmax=100−Ymin; for DC50: concentration at which 50% degradation is achieved
Procedure: Cells (˜50 k) were plated in Cisbio 96-well low volume white plates (Cisbio: cat #66PL96005). Compounds were dissolved in DMSO and a 3-fold serial dilution was performed using a TECAN D300E. Cells were incubated with the compound overnight. Total-IRAK3 HTRF kit from Cisbio was used for degradation analysis (Cisbio: 63ADK101PEH). Cryptate and D2 antibodies were diluted in Detection buffer as per manufacturers recommendation. Then 2 μL of each solution was added to 16 μL lysate. Buffer control (lysis buffer detection buffer), Cryptate control (lysis buffer+cryptate antibody+detection buffer), and Negative control (lysis buffer+cryptate antibody+D2 antibody) were made as per manufacturers recommendation. Post incubation with antibodies the HTRF signal was measured using a Perkin Elmer Envision reader and the HTRF signal was calculated using formula: (Emission at 665 nm/Emission at 615 nm)*10,000. All HTRF values were normalized to the average value of DMSO. The average value of the DMSO control wells were set to equal 100% of the relative IRAK3 protein levels. Normalized luminescence values were plotted on a graph as a function of compound concentration. Compound concentration was plotted on the x-axis and the corresponding normalized IRAK3 protein levels on the y-axis. The EC50 value (the half-maximum effective concentration) of a compound for the degradation of the IRAK3 was calculated using a four-parameter logistic model (sigmoidal dose−response model)(FIT=(A+{(B−A)/1+[(C/x)D]})) where C is the inflection point (EC50), D is the […], and A and B are the low and high limits of the fit, respectively). The Ymin was calculated by determining the lowest percentage of target protein remaining following compound treatment. Dmax was calculated from Ymin (% Dmax=100−Ymin).
as §1

Row | IC50 (IRAK3 [1]) [µM] | Dmax (IRAK3 [2]) [%] | DC50 (IRAK3 [2]) [µM] | SMILES
1 | 0.278 | 7 | > 10 | Cc1cccc(-c2cnc(Nc3ccc(N4CCN(C(=O)COc5cccc6c5C(=O)N(C5CCC(=O)NC5=O)C6=O)CC4)cc3)c3nccn23)c1 (stereo not drawn) [Compound 1, 2-(2,6-Dioxopiperidin-3-yl)-4-(2-oxo-2-(4-(4-((5-(m-tolyl)imidazo[1,2-a]pyrazin-8-yl)amino)phenyl)piperazin-1-yl)ethoxy)isoindoline-1,3-dione]
2 | 0.03 | 13 | > 10 | Cc1cccc(-c2cnc(Nc3ccc(N4CCN(C(=O)CCCNC(=O)COc5cccc6c5C(=O)N(C5CCC(=O)NC5=O)C6=O)CC4)cc3)c3nccn23)c1 (stereo not drawn) [Compound 2, 2-((2-(2,6-Dioxopiperidin-3-yl)-1,3-dioxoisoindolin-4-yl)oxy)-N-(4-oxo-4-(4-(4-((5-(m-tolyl)imidazo[1,2-a]pyrazin-8-yl)amino)phenyl)piperazin-1-yl)butyl)acetamide]
3 | 0.084 | 3 | > 10 | Cc1cccc(-c2cnc(Nc3ccc(N4CCN(C(=O)CCOCCNC(=O)COc5cccc6c5C(=O)N(C5CCC(=O)NC5=O)C6=O)CC4)cc3)c3nccn23)c1 (stereo not drawn) [Compound 3, 2-((2-(2,6-Dioxopiperidin-3-yl)-1,3-dioxoisoindolin-4-yl)oxy)-N-(2-(3-oxo-3-(4-(4-((5-(m-tolyl)imidazo[1,2-a]pyrazin-8-yl)amino)phenyl)piperazin-1-yl)propoxy)ethyl)acetamide]
4 | 0.128 | 4 | > 10 | Cc1cccc(-c2cnc(Nc3ccc(N4CCN(C(=O)COc5ccc6c(c5)C(=O)N(C5CCC(=O)NC5=O)C6=O)CC4)cc3)c3nccn23)c1 (stereo not drawn) [Compound 4, 2-(2,6-Dioxopiperidin-3-yl)-5-(2-oxo-2-(4-(4-((5-(m-tolyl)imidazo[1,2-a]pyrazin-8-yl)amino)phenyl)piperazin-1-yl)ethoxy)isoindoline-1,3-dione]
5 | 0.071 | 18 | > 10 | Cc1cccc(-c2cnc(Nc3ccc(N4CCN(C(=O)CCCNC(=O)COc5ccc6c(c5)C(=O)N(C5CCC(=O)NC5=O)C6=O)CC4)cc3)c3nccn23)c1 (stereo not drawn) [Compound 5, 2-((2-(2,6-Dioxopiperidin-3-yl)-1,3-dioxoisoindolin-5-yl)oxy)-N-(4-oxo-4-(4-(4-((5-(m-tolyl)imidazo[1,2-a]pyrazin-8-yl)amino)phenyl)piperazin-1-yl)butyl)acetamide]
6 | 0.083 | 13 | > 10 | Cc1cccc(-c2cnc(Nc3ccc(N4CCN(C(=O)CCOCCNC(=O)COc5ccc6c(c5)C(=O)N(C5CCC(=O)NC5=O)C6=O)CC4)cc3)c3nccn23)c1 (stereo not drawn) [Compound 6, 2-((2-(2,6-Dioxopiperidin-3-yl)-1,3-dioxoisoindolin-5-yl)oxy)-N-(2-(3-oxo-3-(4-(4-((5-(m-tolyl)imidazo[1,2-a]pyrazin-8-yl)amino)phenyl)piperazin-1-yl)propoxy)ethyl)acetamide]
7 | 0.033 | 27 | > 10 | Cc1cccc(-c2cnc(Nc3ccc(N4CCN(CCNC(=O)COc5ccc6c(c5)C(=O)N(C5CCC(=O)NC5=O)C6=O)CC4)cc3)c3nccn23)c1 (stereo not drawn) [Compound 7, 2-((2-(2,6-Dioxopiperidin-3-yl)-1,3-dioxoisoindolin-5-yl)oxy)-N-(2-(4-(4-((5-(m-tolyl)imidazo[1,2-a]pyrazin-8-yl)amino)phenyl)piperazin-1-yl)ethyl)acetamide]
8 | < 0.0005 | 73 | 0.02 | Cc1cccc(-c2cnc(Nc3cnn(C4CCN(CCNC(=O)COc5ccc6c(c5)C(=O)N(C5CCC(=O)NC5=O)C6=O)CC4)c3)c3nccn23)c1 (stereo not drawn) [Compound 8, 2-((2-(2,6-Dioxopiperidin-3-yl)-1,3-dioxoisoindolin-5-yl)oxy)-N-(2-(4-(4-((5-(m-tolyl)imidazo[1,2-a]pyrazin-8-yl)amino)-1H-pyrazol-1-yl)piperidin-1-yl)ethyl)acetamide]
9 | 0.214 | 33 | > 10 | Cc1cccc(-c2cnc(Nc3cccc(C4CCN(CCNC(=O)COc5ccc6c(c5)C(=O)N(C5CCC(=O)NC5=O)C6=O)CC4)c3)c3nccn23)c1 (stereo not drawn) [Compound 9, 2-((2-(2,6-Dioxopiperidin-3-yl)-1,3-dioxoisoindolin-5-yl)oxy)-N-(2-(4-(3-((5-(m-tolyl)imidazo[1,2-a]pyrazin-8-yl)amino)phenyl)piperidin-1-yl)ethyl)acetamide]
10 | 0.236 | 30 | > 10 | Cc1cccc(-c2cnc(Nc3ccc(C4CCN(CCNC(=O)COc5ccc6c(c5)C(=O)N(C5CCC(=O)NC5=O)C6=O)CC4)cc3)c3nccn23)c1 (stereo not drawn) [Compound 10, 2-((2-(2,6-Dioxopiperidin-3-yl)-1,3-dioxoisoindolin-5-yl)oxy)-N-(2-(4-(4-((5-(m-tolyl)imidazo[1,2-a]pyrazin-8-yl)amino)phenyl)piperidin-1-yl)ethyl)acetamide]
11 | 5.34 | 21 | > 10 | Cc1cccc(-c2cnc(Nc3cccc(N4CCN(CCNC(=O)COc5ccc6c(c5)C(=O)N(C5CCC(=O)NC5=O)C6=O)CC4)c3)c3nccn23)c1 (stereo not drawn) [Compound 11, 2-((2-(2,6-Dioxopiperidin-3-yl)-1,3-dioxoisoindolin-5-yl)oxy)-N-(2-(4-(3-((5-(m-tolyl)imidazo[1,2-a]pyrazin-8-yl)amino)phenyl)piperazin-1-yl)ethyl)acetamide]
12 | 0.002 | 81 | 0.01 | Cc1cccc(-c2cnc(Nc3cnn(C4CCN(C5CCC6(CC5)CCN(C(=O)c5ccc7c(c5)CN(C5CCC(=O)NC5=O)C7=O)CC6)CC4)c3)c3nccn23)c1 (stereo not drawn) [Compound 12, 3-(1-Oxo-5-(9-(4-(4-((5-(m-tolyl)imidazo[1,2-a]pyrazin-8-yl)amino)-1H-pyrazol-1-yl)piperidin-1-yl)-3-azaspiro[5.5]undecane-3-carbonyl)isoindolin-2-yl)piperidine-2,6-dione]
